This is an account of results in patent US12139499B2, “Heteroaryl compounds for treating Huntington's disease” (PTC THERAPEUTICS, INC., priority 2018, dated 2024).

Structures are written as SMILES. Where only a bound is given, the exact number is not on record here.

This assay has as its system Endogenous Huntingtin Protein. Nature of the assay: Endogenous Huntingtin Protein Assay (ELISA-based MSD electrochemiluminescence). Type of assay: cell-based. The settings on record: Table 1. On the procedure: Compounds of Formula (I) or Formula (II) were tested using the Meso Scale Discovery (MSD) Assay provided in International Application No. PCT/US2016/066042, filed on Dec. 11, 2016 and claiming priority to U.S. Provisional Application 62/265,652 filed on Dec. 10, 2015, the entire contents of which are incorporated herein by reference.
The Endogenous Huntingtin Protein assay used in Example 1 was developed using the ELISA-based MSD electrochemiluminescence assay platform.
Endogenous Huntingtin Protein Assay
Meso Scale Discovery (MSD) 96-well or 384-well plates were coated overnight at 4° C. with MW1 (expanded polyglutamine) or MAB2166 monoclonal antibody (for capture) at a concentration of 1 μg/mL in PBS (30 μL per well). Plates were then washed three times with 300 μL wash buffer (0.05% Tween-20 in PBS) and blocked (100 μL blocking buffer; 5% BSA in PBS) for 4-5 hours at room temperature with rotational shaking and then washed three times with wash buffer.
Samples (25 μL) were transferred to the antibody-coated MSD plate and incubated overnight at 4° C. After removal of the lysates, the plate was washed three times with wash buffer, and 25 μL of #5656S (Cell signaling; rabbit monoclonal) secondary antibody (diluted to 0.25 μg/mL in 0.05% Tween-20 in blocking buffer) was added to each well and incubated with shaking for 1 Hour at room temperature. Following incubation with the secondary antibody, the wells were rinsed with wash buffer after which 25 μL of goat anti-rabbit SULFO TAG secondary detection antibody (required aspect of the MSD system) (diluted to 0.25 μg/mL in 0.05% Tween-20 in blocking buffer) was added to each well and incubated with shaking for 1 hour at room temperature. After rinsing three times with wash buffer, 150 μL of read buffer T with surfactant (MSD) were added to each empty well, and the plate was imaged on a SI 6000 imager (MSD) according to manufacturers' instructions provided for 96- or 384-well plates.
A word on the IC50: it is the concentration that gives 50% inhibition. Read a low IC50 as inhibition by little substance. Regarding `CN(C)[C@H]1C[C@@H](N(C)c2nc3nnc(-c4ccc(-c5cn[nH]c5)cc4O)cc3s2)C1` [Compound 364, 2-(6-{[(1s,3s)-3-(dimethylamino)cyclobutyl](methyl)amino}[1,3]thiazolo[4,5-c]pyridazin-3-yl)-5-(1H-pyrazol-4-yl)phenol], the IC50 is 1000 to 3000 nM. Then `Cc1cc(-c2ccc3nc(OC4CC(C)(C)NC(C)(C)C4)sc3c2)cc2cn(C)nc12` [Compound 68, 6-(2,7-dimethyl-2H-indazol-5-yl)-2-[(2,2,6,6-tetramethylpiperidin-4-yl)oxy]-1,3-benzothiazole], with 1000 to 3000 nM; and `CN(c1nc2ccc(-c3cc(C#N)c4nn(C)cc4c3)cc2s1)C1CC(C)(C)NC(C)(C)C1` [Compound 62, 2-methyl-5-{2-[methyl(2,2,6,6-tetramethylpiperidin-4-yl)amino]-1,3-benzothiazol-6-yl}-2H-indazole-7-carbonitrile], with at most 100 nM; and `CN(c1nc2cnc(-c3ccc4nn(C)cc4c3)cc2s1)C1CCNCC1` [Compound 27, N-methyl-6-(2-methyl-2H-indazol-5-yl)-N-(piperidin-4-yl)[1,3]thiazolo[4,5-c]pyridin-2-amine], with 500 to 1000 nM.

As for `C[C@@H]1C[C@@H](N(C)c2nc3nnc(-c4ccc(-c5cn[nH]c5)cc4O)cc3s2)CCN1` [Compound 396, 2-(6-{methyl[(2R,4S)-2-methylpiperidin-4-yl]amino][1,3]thiazolo[4,5-c]pyridazin-3-yl)-5-(1H-pyrazol-4-yl)phenol], the half-maximal inhibitory concentration (IC50) was at most 100 nM. In turn, `CN(c1nc2nnc(-c3ccc(-c4cn[nH]c4)cc3O)cc2s1)C1CNC1` [Compound 353, 2-{6-[(azetidin-3-yl)(methyl)amino][1,3]thiazolo[4,5-c]pyridazin-3-yl}-5-(1H-pyrazol-4-yl)phenol] came in with an IC50 of 100 to 500 nM. Turning to `Cn1cc2cc(-c3cnc4nc(NC5CCNCC5)sc4c3)ccc2n1` [Compound 15, 6-(2-methyl-2H-indazol-5-yl)-N-(piperidin-4-yl)[1,3]thiazolo[4,5-b]pyridin-2-amine], the IC50 was in the range of 1000 to 3000 nM.

`CN(c1nc2nnc(-c3ccc(-c4cn[nH]c4)cc3O)cc2s1)[C@@H]1CNC[C@@H]1F` [Compound 346, 2-(6-{[(3R,4S)-4-fluoropyrrolidin-3-yl](methyl)amino}[1,3]thiazolo[4,5-c]pyridazin-3-yl)-5-(1H-pyrazol-4-yl)phenol] came in with an IC50 of 100 to 500 nM. As for `Cc1cn2nc(-c3cc(F)c4nc(C5CCNCC5)sc4c3)cc(N)c2n1` [Compound 188, 6-[4-fluoro-2-(piperidin-4-yl)-1,3-benzothiazol-6-yl]-2-methylimidazo[1,2-b]pyridazin-8-amine], the IC50 is at most 100 nM. Take `Cc1cn2nc(-c3cc(F)c4nc(N(C)C5CC(C)(C)NC(C)(C)C5)sc4c3)cc(N)c2n1` [Compound 201, 6-{4-fluoro-2-[methyl(2,2,6,6-tetramethylpiperidin-4-yl)amino]-1,3-benzothiazol-6-yl}-2-methylimidazo[1,2-b]pyridazin-8-amine]: the IC50 was in the range of 100 to 500 nM. The result for `Cc1cc(-c2ncc3nc(N(C)C4CC(C)(C)NC(C)(C)C4)sc3c2F)cc2cn(C)nc12` [Compound 101, 6-(2,7-dimethyl-2H-indazol-5-yl)-7-fluoro-N-methyl-N-(2,2,6,6-tetramethylpiperidin-4-yl)[1,3]thiazolo[4,5-c]pyridin-2-amine] reads 100 to 500 nM; that for `CN(c1nc2cnc(-c3cc(F)c4nn(C)cc4c3)nc2s1)C1CC2CCC(C1)N2` (stereo not drawn) [Compound 218, N-[(3-exo)-8-azabicyclo[3.2.1]oct-3-yl]-5-(7-fluoro-2-methyl-2H-indazol-5-yl)-N-methyl[1,3]thiazolo[5,4-d]pyrimidin-2-amine], 100 to 500 nM. Then `CN1C[C@H](Nc2nc3nnc(-c4ccc(-c5cn[nH]c5)cc4O)cc3s2)[C@@H](F)C1` [Compound 342, 2-(6-{[(3S,4S)-4-fluoro-1-methylpyrrolidin-3-yl]amino}[1,3]thiazolo[4,5-c]pyridazin-3-yl)-5-(1H-pyrazol-4-yl)phenol], with 100 to 500 nM; and `CC1CC(c2nc3ccc(-c4ccc5nn(C)cc5c4)cc3s2)CC(C)N1` (stereo not drawn) [Compound 190, 2-(2,6-dimethylpiperidin-4-yl)-6-(2-methyl-2H-indazol-5-yl)-1,3-benzothiazole], with 1000 to 3000 nM; and `Cc1nc2ccc(-c3ccc4nc(C5CCNCC5)sc4c3)cc2o1` [Compound 112, 2-methyl-6-[2-(piperidin-4-yl)-1,3-benzothiazol-6-yl]-1,3-benzoxazole], with 100 to 500 nM.

On to `CN(c1nc2ncc(-c3ccc(-c4cn[nH]c4)c(F)c3F)nc2s1)C1CC(C)(C)NC(C)(C)C1` [Compound 161, 6-[2,3-difluoro-4-(1H-pyrazol-4-yl)phenyl]-N-methyl-N-(2,2,6,6-tetramethylpiperidin-4-yl)[1,3]thiazolo[4,5-b]pyrazin-2-amine], for which the IC50 lay within 1000 to 3000 nM. Take `Cc1cn2nc(-c3ccc4nc(N(C)C5CC(C)(C)NC(C)(C)C5)sc4c3)ccc2n1` [Compound 40, N-methyl-6-(2-methylimidazo[1,2-b]pyridazin-6-yl)-N-(2,2,6,6-tetramethylpiperidin-4-yl)-1,3-benzothiazol-2-amine]: the IC50 was at most 100 nM. The result for `CN1[C@@H]2CC[C@H]1C[C@H](Nc1nc3cnc(-c4cc(F)c5nn(C)cc5c4)cc3s1)C2` [Compound 246, 6-(7-fluoro-2-methyl-2H-indazol-5-yl)-N-[(3-exo)-8-methyl-8-azabicyclo[3.2.1]oct-3-yl][1,3]thiazolo[4,5-c]pyridin-2-amine] reads 1000 to 3000 nM; that for `Cn1cc2cc(-c3cc4sc(C5CCNCC5)nc4cn3)cc(F)c2n1` [Compound 76, 6-(7-fluoro-2-methyl-2H-indazol-5-yl)-2-(piperidin-4-yl)[1,3]thiazolo[4,5-c]pyridine], 100 to 500 nM. In the case of `CN[C@H]1C[C@H](N(C)c2nc3nnc(-c4ccc(-c5cn[nH]c5)cc4O)cc3s2)C1` [Compound 376, 2-(6-{methyl[(1r,3r)-3-(methylamino)cyclobutyl]amino}[1,3]thiazolo[4,5-c]pyridazin-3-yl)-5-(1H-pyrazol-4-yl)phenol], the IC50 lay within 100 to 500 nM. `Oc1cc(-c2cn[nH]c2)ccc1-c1cc2sc(N3CCC34CCNCC4)nc2nn1` [Compound 354, 2-[6-(1,7-diazaspiro[3.5]nonan-1-yl)[1,3]thiazolo[4,5-c]pyridazin-3-yl]-5-(1H-pyrazol-4-yl)phenol]: the IC50 is at most 100 nM. The result for `COc1cc(-c2cc(F)c3nc(N(C)C4CCNCC4)sc3c2)nn2cc(C)nc12` [Compound 202, 4-fluoro-6-(8-methoxy-2-methylimidazo[1,2-b]pyridazin-6-yl)-N-methyl-N-(piperidin-4-yl)-1,3-benzothiazol-2-amine] reads at most 100 nM; that for `Cc1cc(-c2ncc3nc(N(C)C4CC(C)(C)NC(C)(C)C4)sc3n2)cc2cn(C)nc12` [Compound 122, 5-(2,7-dimethyl-2H-indazol-5-yl)-N-methyl-N-(2,2,6,6-tetramethylpiperidin-4-yl)[1,3]thiazolo[5,4-d]pyrimidin-2-amine], 100 to 500 nM.

In the case of `CN(c1nc2nnc(-c3cc(F)c(-c4cn[nH]c4)cc3F)cc2s1)C1CCNCC1` [Compound 328, 3-[2,5-difluoro-4-(1H-pyrazol-4-yl)phenyl]-N-methyl-N-(piperidin-4-yl)[1,3]thiazolo[4,5-c]pyridazin-6-amine], the IC50 lay in the range of 100 to 500 nM. For `CN(c1nc2nnc(-c3ccc(-c4cn[nH]c4)cc3O)cc2s1)C1CCN(C2CC2)CC1` [Compound 383, 2-{6-[(1-cyclopropylpiperidin-4-yl)(methyl)amino][1,3]thiazolo[4,5-c]pyridazin-3-yl}-5-(1H-pyrazol-4-yl)phenol], the IC50 was at most 100 nM. The molecule `Fc1cc(-c2ccc3[nH]ncc3n2)cc2sc(C3CCNCC3)nc12` [Compound 78, 5-[4-fluoro-2-(piperidin-4-yl)-1,3-benzothiazol-6-yl]-1H-pyrazolo[4,3-b]pyridine] registered an IC50 of 500 to 1000 nM. As to `CN(c1nc2cnc(-c3cc(F)c4nn(C)cc4c3)cc2s1)C1CC2CCCC(C1)N2C` (stereo not drawn) [Compound 273, 6-(7-fluoro-2-methyl-2H-indazol-5-yl)-N-methyl-N-(9-methyl-9-azabicyclo[3.3.1]non-3-yl)[1,3]thiazolo[4,5-c]pyridin-2-amine], the IC50 is 500 to 1000 nM. The result for `Cc1cc(-c2cnc3nc(N(C)C4CCNCC4)sc3c2)cc2cn(C)nc12` [Compound 13, 6-(2,7-dimethyl-2H-indazol-5-yl)-N-methyl-N-(piperidin-4-yl)[1,3]thiazolo[4,5-b]pyridin-2-amine] reads 500 to 1000 nM; that for `Cc1cn2nc(-c3cc(F)c4nc(C5CCN(C)CC5)sc4c3)ccc2n1` [Compound 92, 6-[4-fluoro-2-(1-methylpiperidin-4-yl)-1,3-benzothiazol-6-yl]-2-methylimidazo[1,2-b]pyridazine], at most 100 nM. `CN(c1nc2nnc(-c3ccc(-c4c[nH]nc4F)cc3O)cc2s1)C1CCCNCC1` (stereo not drawn) [Compound 398, 2-{6-[(azepan-4-yl)(methyl)amino][1,3]thiazolo[4,5-c]pyridazin-3-yl)-5-(3-fluoro-1H-pyrazol-4-yl)phenol] yielded an IC50 of at most 100 nM.
